Assay results: ChEMBL document CHEMBL5576124, “Discovery of an Exceptionally Orally Bioavailable and Potent HPK1 PROTAC with Enhancement of Antitumor Efficacy of Anti-PD-L1 Therapy” (J Med Chem, 2024)
Calls of active or inactive are those of the source. The calls are words filed in the database; no cut-off is given here.

Experiments:
[1] = Half life in ICR mouse at 10 mg/kg,po measured upto 24 hrs by LC-MS analysis; assay type: ADME, organism-based; conditions: in vivo
Jurkat [2] = assay: Immunostimulatory activity in anti-CD3/CD28 induced human Jurkat cells assessed as downregulation of SLP76 phosphorylation by Western blotting analysis; assay type: functional, cell-based
[3] = AUC (0 to t) in ICR mouse at 10 mg/kg,po measured upto 24 hrs by LC-MS analysis; assay type: ADME, organism-based; conditions: in vivo
Jurkat [4] = assay: Immunostimulatory activity in anti-CD3/CD28 induced human Jurkat cells assessed as increase in IL-2 release at 10 to 10000 nM incubated for 24 hrs in presence of PGE2 and NECA by ELISA; assay type: functional, cell-based; conditions: dose 10-10000 nM
[5] = Cmax in ICR mouse at 1 mg/kg,iv measured upto 24 hrs by LC-MS analysis; assay type: ADME, organism-based; conditions: in vivo
Jurkat [6] = assay: Immunostimulatory activity in anti-CD3/CD28 induced human Jurkat cells assessed as increase in IL-2 release incubated for 24 hrs by ELISA; assay type: functional, cell-based
[7] = Metabolic stability in mouse liver microsomes assessed as hepatic extraction ratio; assay type: ADME, Microsome; conditions: read-out: ERH
[8] = AUC (0 to t) in ICR mouse at 1 mg/kg,iv measured upto 24 hrs by LC-MS analysis; assay type: ADME, organism-based; conditions: in vivo
[9] = target: T1, Protein cereblon/Mitogen-activated protein kinase kinase kinase kinase 1 (Homo sapiens, UniProt Q92918+Q96SW2); assay: PROTAC activity at CRBN/HPK1 in human Jurkat cells assessed as degradation of HPK1 protein incubated for 24 hrs by Western blotting analysis; assay type: cell-based
Target sequence in this assay (Q92918 whole entry): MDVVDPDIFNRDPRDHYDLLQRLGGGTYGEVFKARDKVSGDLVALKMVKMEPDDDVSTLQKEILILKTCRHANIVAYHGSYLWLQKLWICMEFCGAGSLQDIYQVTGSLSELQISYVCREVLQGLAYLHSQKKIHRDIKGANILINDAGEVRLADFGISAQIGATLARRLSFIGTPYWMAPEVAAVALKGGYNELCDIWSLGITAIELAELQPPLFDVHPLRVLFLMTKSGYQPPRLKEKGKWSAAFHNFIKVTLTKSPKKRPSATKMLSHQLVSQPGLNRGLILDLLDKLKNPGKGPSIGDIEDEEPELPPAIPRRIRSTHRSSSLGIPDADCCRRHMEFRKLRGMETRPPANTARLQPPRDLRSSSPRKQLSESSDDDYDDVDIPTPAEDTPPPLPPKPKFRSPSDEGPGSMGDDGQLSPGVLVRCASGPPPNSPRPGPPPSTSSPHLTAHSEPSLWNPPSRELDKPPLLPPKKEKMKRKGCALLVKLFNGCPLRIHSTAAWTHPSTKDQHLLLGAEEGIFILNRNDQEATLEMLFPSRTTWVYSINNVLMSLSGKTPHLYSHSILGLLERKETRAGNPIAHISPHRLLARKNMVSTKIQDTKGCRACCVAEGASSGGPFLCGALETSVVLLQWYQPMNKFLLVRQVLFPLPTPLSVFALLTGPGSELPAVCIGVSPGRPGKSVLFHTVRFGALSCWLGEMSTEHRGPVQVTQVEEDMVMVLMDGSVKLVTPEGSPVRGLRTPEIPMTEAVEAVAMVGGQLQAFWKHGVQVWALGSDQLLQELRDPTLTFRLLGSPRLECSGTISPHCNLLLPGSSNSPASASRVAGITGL
Target sequence in this assay (Q96SW2 whole entry): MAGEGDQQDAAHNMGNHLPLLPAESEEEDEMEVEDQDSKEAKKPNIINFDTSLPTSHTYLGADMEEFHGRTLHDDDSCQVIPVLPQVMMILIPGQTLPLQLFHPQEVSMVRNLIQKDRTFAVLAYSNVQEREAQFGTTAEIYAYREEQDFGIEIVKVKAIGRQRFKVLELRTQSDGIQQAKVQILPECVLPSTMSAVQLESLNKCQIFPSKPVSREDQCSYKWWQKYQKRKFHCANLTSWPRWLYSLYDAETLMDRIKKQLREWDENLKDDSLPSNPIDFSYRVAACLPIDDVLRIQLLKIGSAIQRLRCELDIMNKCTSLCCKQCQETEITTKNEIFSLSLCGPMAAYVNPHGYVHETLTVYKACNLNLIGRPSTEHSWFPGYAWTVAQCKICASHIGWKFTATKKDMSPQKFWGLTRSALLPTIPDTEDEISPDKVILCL

Jurkat [10] = assay: Immunostimulatory activity in anti-CD3/CD28 induced human Jurkat cells assessed as upregulation of ERK expression by Western blotting analysis; assay type: functional, cell-based
T-cell line [11] = assay: Immunostimulatory activity in human T cell assessed as increase in IL-2 secretion at 10 uM relative to control; assay type: functional
[12] = Stability in human liver microsomes assessed as parent compound remaining measured after 5 mins; assay type: ADME, Microsome; conditions: read-out: Stability
[13] = target: T1, Protein cereblon/Mitogen-activated protein kinase kinase kinase kinase 1; assay: PROTAC activity at CRBN/HPK1 in human Jurkat cells assessed as maximal degradation of HPK1 protein incubated for 24 hrs by Western blotting analysis relative to control; assay type: cell-based
Target sequence in this assay (Q92918 whole entry, looked up): as the sequence (Q92918 whole entry) above
Target sequence in this assay (Q96SW2 whole entry, looked up): as the sequence (Q96SW2 whole entry) above

Jurkat [14] = assay: Immunostimulatory activity in anti-CD3/CD28 induced human Jurkat cells assessed as downregulation of NF-kappaB phosphorylation by Western blotting analysis; assay type: functional, cell-based
[15] = Metabolic stability in human liver microsomes assessed as microsomal intrinsic clearance; assay type: ADME, Microsome; conditions: read-out: CLH
[16] = target: Mitogen-activated protein kinase kinase kinase kinase 1 (Homo sapiens, UniProt Q92918); assay: Inhibition of HPK1 (unknown origin)
T-cell line [17] = assay: Immunostimulatory activity in human T cell assessed as fold increase in IL-2 secretion; assay type: functional
[18] = Cmax in Sprague-Dawley rat at 10 mg/kg,po measured upto 24 hrs by LC-MS analysis; assay type: ADME, organism-based; conditions: in vivo
[19] = Metabolic stability in mouse liver microsomes assessed as intrinsic clearance; assay type: ADME, Microsome; conditions: read-out: CLH
Jurkat [20] = assay: Antiproliferative activity against human Jurkat cells assessed as inhibition of cell growth at 4 to 10000 nM incubated for 3 days by CCK-8 assay; assay type: functional, cell-based; conditions: dose 4-10000 nM, time 3.0 day
[21] = target: T1, Protein cereblon/Mitogen-activated protein kinase kinase kinase kinase 1; assay: PROTAC activity at CRBN/HPK1 in human Jurkat cells assessed as degradation of HPK1 protein by Western blotting analysis; assay type: cell-based
Target sequence in this assay (Q92918 whole entry, looked up): as the sequence (Q92918 whole entry) above
Target sequence in this assay (Q96SW2 whole entry, looked up): as the sequence (Q96SW2 whole entry) above

[22] = Metabolic stability in human liver microsomes assessed as intrinsic clearance; assay type: ADME, Microsome; conditions: read-out: CLH
[23] = AUC (0 to t) in Sprague-Dawley rat at 10 mg/kg,po measured upto 24 hrs by LC-MS analysis; assay type: ADME, organism-based; conditions: in vivo
[24] = target: T1, Protein cereblon/Mitogen-activated protein kinase kinase kinase kinase 1; assay: PROTAC activity at CRBN/HPK1 in human Jurkat cells assessed as downregulation of KHS expression by Western blotting analysis; assay type: cell-based
Target sequence in this assay (Q92918 whole entry, looked up): as the sequence (Q92918 whole entry) above
Target sequence in this assay (Q96SW2 whole entry, looked up): as the sequence (Q96SW2 whole entry) above

[25] = Stability in mouse liver microsomes assessed as parent compound remaining measured after 30 mins; assay type: ADME, Microsome; conditions: read-out: Stability
[26] = Metabolic stability in human liver microsomes assessed as half life; assay type: ADME, Microsome
[27] = Tmax in ICR mouse at 10 mg/kg,po measured upto 24 hrs by LC-MS analysis; assay type: ADME, organism-based; conditions: in vivo
Jurkat [28] = assay: Immunostimulatory activity in anti-CD3/CD28 induced human Jurkat cells assessed as increase in IFN-gamma at 10 to 10000 nM incubated for 24 hrs in presence of PGE2 and NECA by ELISA; assay type: functional, cell-based; conditions: dose 10-10000 nM
[29] = Half life in Sprague-Dawley rat at 10 mg/kg,po measured upto 24 hrs by LC-MS analysis; assay type: ADME, organism-based; conditions: in vivo
[30] = target: T1, Protein cereblon/Mitogen-activated protein kinase kinase kinase kinase 1; assay: PROTAC activity at CRBN/HPK1 in human Jurkat cells assessed as degradation of HPK1 protein at 1 uM preincubated with thalidomide followed by compound addition incubated for 24 hrs by Western blotting analysis; assay type: cell-based
Target sequence in this assay (Q92918 whole entry, looked up): as the sequence (Q92918 whole entry) above
Target sequence in this assay (Q96SW2 whole entry, looked up): as the sequence (Q96SW2 whole entry) above

[31] = Toxicity in BALB/c mouse implanted with mouse CT26 cells assessed as change in body weight at 25 mg/kg,po administrated once daily for 15 days; assay type: organism-based; conditions: in vivo, 360 h, time 15 day
[32] = Metabolic stability in human liver microsomes assessed as hepatic extraction ratio; assay type: ADME, Microsome; conditions: read-out: ERH
Jurkat [33] = assay: Immunostimulatory activity in anti-CD3/CD28 induced human Jurkat cells assessed as upregulation of ERK phosphorylation by Western blotting analysis; assay type: functional, cell-based
[34] = target: T1, Protein cereblon/Mitogen-activated protein kinase kinase kinase kinase 1; assay: PROTAC activity at CRBN/HPK1 in human Jurkat cells assessed as degradation of HPK1 protein at 1 uM preincubated with MG132 followed by compound addition incubated for 24 hrs by Western blotting analysis; assay type: cell-based
Target sequence in this assay (Q92918 whole entry, looked up): as the sequence (Q92918 whole entry) above
Target sequence in this assay (Q96SW2 whole entry, looked up): as the sequence (Q96SW2 whole entry) above

T-cell line [35] = assay: Immunostimulatory activity in human T cell assessed as increase in IL-2 secretion; assay type: functional, cell-based

Sequence of Mitogen-activated protein kinase kinase kinase kinase 1 (Q92918 whole entry): as the sequence (Q92918 whole entry) above

Q: With Cc1cc(-c2c[nH]c3ncc(-c4ccc(C5CCN(C6CN(c7ccc8c(c7)C(=O)N(C7CCC(=O)NC7=O)C8=O)C6)CC5)cc4)nc23)ccc1C(=O)N(C)C (stereo not given) as the molecule, how does the half-life [1] read?
A: 4.33 h

Q: And the Activity (Jurkat [2])?
A: Active

Q: And the AUC(0-t) at 24 h [3]?
A: 137000 ng·h/mL

Q: And the Activity (Jurkat [4])?
A: inactive

Q: And the Cmax [5]?
A: 3000 ng/mL

Q: What about the Activity (Jurkat [6]) of the same molecule?
A: Dose-Dependent Effect

Q: And the hepatic extraction ratio [7]?
A: 0.444

Q: What about the AUC(0-t) at 24 h [8] of the same molecule?
A: 16800 ng·h/mL

Q: What about the DC50 [9] of the same molecule?
A: 4.5 nM

Q: What about the Activity (Jurkat [10]) of the same molecule?
A: Active

Q: What about the Activity (T-cell line [11]) of the same molecule?
A: 2361.07%

Q: What about the remaining at 5 min [12] of the same molecule?
A: 96.5%

Q: What about the Emax [13] of the same molecule?
A: 80.5%

Q: And the Activity (Jurkat [14])?
A: Active

Q: What about the CLint scaled [15] of the same molecule?
A: 5.54 mL/min/kg

Q: What about the IC50 [16] of the same molecule?
A: 30.9 nM

Q: And the “fold change (FC)” value (T-cell line [17])?
A: 70

Q: And the Cmax [18]?
A: 2090 ng/mL

Q: What about the microsomal CLint [19] of the same molecule?
A: 18.4 µL/min/mg

Q: And the Activity (Jurkat [20])?
A: inactive

Q: What about the Activity [21] of the same molecule?
A: Active

Q: And the microsomal CLint [22]?
A: 1.4 µL/min/mg

Q: What about the AUC(0-t) at 24 h [23] of the same molecule?
A: 16400 ng·h/mL

Q: And the Activity [24]?
A: Active

Q: What about the remaining at 0.5 h [25] of the same molecule?
A: 70.3%

Q: And the half-life [26]?
A: 16.5 h

Q: And the Tmax [27]?
A: 4 h

Q: And the Activity (Jurkat [28])?
A: inactive

Q: What about the half-life [29] of the same molecule?
A: 6.58 h

Q: What about the Activity [30] of the same molecule?
A: Active

Q: And the Activity [31]?
A: Non-Toxic

Q: What about the hepatic extraction ratio [32] of the same molecule?
A: 0.058

Q: What about the Activity (Jurkat [33]) of the same molecule?
A: Active

Q: What about the Activity [34] of the same molecule?
A: inactive

Q: And the EC50 (T-cell line [35])?
A: 12.9 nM
